Experimental findings from patent publication US4735963A, “Anti-platelet aggregating 1,3-oxathiane derivatives, compositions, and method of use therefor” (Imperial Chemical Industries PLC, priority 1985, dated 1988) are described below.

This assay has as its system TXA2. In words: rabbit aortal strip model, test (a). The class given is cell-based. The conditions noted are these: agonist TXA2 or U46619. Here is the method:
(a) The rabbit aortal strip model devised by Piper and Vane (Nature, 1969, 223, 29-35) using as agonist a freshly prepared sample of TXA2, generated by addition of arachidonic acid (25 μg) to citrated, platelet rich rabbit plasma (250 μl) and allowing the mixture to aggregate fully over 90 seconds before use; alternatively the TXA2 mimetic agent known as U46619 (described by R L Jones et alia, in "Chemistry, Biochemistry and Pharmacological Activity of Prostanoids" edited by S M Roberts and F Scheinmann, at page 211, Pergamon Press, 1979) may be used as the agonist;

As to `CC1(C)O[C@@H](c2ccccc2O)[C@@H](C/C=C\CCCC(=O)O)CS1` (relative stereo) [Example 1, 5(Z)-7-(6-o-hydroxyphenyl-2,2-dimethyl-1,3-oxathian-cis-5-yl)heptenoic acid], the “pA2 in test (a)” value is 7.42.
